Source: patent publication US5041567A, “Antibacterial monic acid derivatives” (Beecham Group plc, priority 1982, dated 1991)
Converted amounts (≈) assume the structure as drawn. Like-named read-outs stand apart in the source and are kept apart here.

Assays:
M. suipneumoniae JF 435 = experiment: MIC against mycoplasma in vitro; format: cell-based; settings: Mesomycoplasma hyopneumoniae, JF435, 144 h
M. suipneumoniae HK(2) = experiment: MIC against mycoplasma in vitro; format: cell-based; settings: Mesomycoplasma hyopneumoniae, 144 h
[1] = system: M. suipneumoniae J2206/183^b; experiment: MIC against mycoplasma in vitro; format: cell-based; settings: Mesomycoplasma hyopneumoniae, 144 h
M. suipneumoniae LABER = experiment: MIC against mycoplasma in vitro; format: cell-based; settings: Mesomycoplasma hyopneumoniae, 144 h
M. suipneumoniae UCD 1 = experiment: MIC against mycoplasma in vitro; format: cell-based; settings: Mesomycoplasma hyopneumoniae, UCD1, 144 h
[2] = system: M. suipneumoniae ATCC 25095; experiment: MIC against mycoplasma in vitro; format: cell-based; settings: Mesomycoplasma hyopneumoniae, ATCC25095, 144 h
[3] = system: M. suipneumoniae NCTC 10110; experiment: MIC against mycoplasma in vitro; format: cell-based; settings: Mesomycoplasma hyopneumoniae, NCTC10110, 144 h
M. hyorhinis ATCC 23234 = experiment: MIC against mycoplasma in vitro; format: cell-based; settings: Mesomycoplasma hyorhinis, ATCC23234, 144 h
M. hyorhinis ATCC 25021 = experiment: MIC against mycoplasma in vitro; format: cell-based; settings: Mesomycoplasma hyorhinis, ATCC25021, 144 h
[4] = system: M. hyosynoviae ATCC 25591; experiment: MIC against mycoplasma in vitro; format: cell-based; settings: 144 h
M. dispar NCTC 10125 = experiment: MIC against mycoplasma in vitro; format: cell-based; settings: 144 h
M. pneumoniae ATCC 15492 = experiment: MIC against mycoplasma in vitro; format: cell-based; settings: Mycoplasmoides pneumoniae, ATCC15492, 144 h
E. coli ESS = experiment: MIC against human bacteria in vitro; format: cell-based; settings: Escherichia coli; E. coli ESS; 5% chocolated horse blood agar, 18 hours; read-out: MIC
[5] = system: Pasteurella multocida 1633; experiment: MIC against human bacteria in vitro; format: cell-based; settings: Pasteurella multocida 1633; 5% chocolated horse blood agar, 18 hours; read-out: MIC
[6] = system: Haemophilus influenzae Wy21; experiment: MIC against human bacteria in vitro; format: cell-based; settings: Haemophilus influenzae Wy21; 5% chocolated horse blood agar, 18 hours; read-out: MIC
Bacillus subtilis 6633 = experiment: MIC against human bacteria in vitro; format: cell-based; settings: Bacillus subtilis 6633; 5% chocolated horse blood agar, 18 hours; read-out: MIC
[7] = system: Corynebacterium xerosis 9755; experiment: MIC against human bacteria in vitro; format: cell-based; settings: Corynebacterium xerosis 9755; 5% chocolated horse blood agar, 18 hours; read-out: MIC
Staph. aureus Oxford [8] = experiment: MIC against human bacteria in vitro; format: cell-based; settings: Staphylococcus aureus; Staph. aureus Oxford; 5% chocolated horse blood agar, 18 hours; read-out: MIC
Staph. aureus Russell = experiment: MIC against human bacteria in vitro; format: cell-based; settings: Staphylococcus aureus; Staph. aureus Russell; 5% chocolated horse blood agar, 18 hours; read-out: MIC
Staph. aureus W2827 = experiment: MIC against human bacteria in vitro; format: cell-based; settings: Staphylococcus aureus; Staph. aureus W2827; 5% chocolated horse blood agar, 18 hours; read-out: MIC
Strep. agalactiae 2788-B = experiment: MIC against human bacteria in vitro; format: cell-based; settings: Streptococcus agalactiae; Strep. agalactiae 2788-B; 5% chocolated horse blood agar, 18 hours; read-out: MIC
Strep. pneumoniae CN33 = experiment: MIC against human bacteria in vitro; format: cell-based; settings: Streptococcus pneumoniae; Strep. pneumoniae CN33; 5% chocolated horse blood agar, 18 hours; read-out: MIC
S. dublin S7 = experiment: MIC against veterinary bacteria in vitro; settings: Salmonella enterica, S7, 18 h
Method: (§1) The activity of the compounds of the Examples against various veterinarily important bacteria, was assayed in vitro using two-fold serial dilutions in Diagnostic Sensitivity Test Agar inoculated with 10^4 organisms.

Bord. bronchiseptica B08 = experiment: MIC against veterinary bacteria in vitro; settings: Bordetella bronchiseptica, B08, 18 h
Method: as §1

Past. multocida PA1 = experiment: MIC against veterinary bacteria in vitro; settings: Pasteurella multocida, PA1, 18 h
Method: as §1

Past. multocida PA2 = experiment: MIC against veterinary bacteria in vitro; settings: Pasteurella multocida, PA2, 18 h
Method: as §1

Past. haemolytica PA5 = experiment: MIC against veterinary bacteria in vitro; settings: Mannheimia haemolytica, PA5, 18 h
Method: as §1

[9] = system: Erysipelothrix rhusiopathiae NCTC 8163; experiment: MIC against veterinary bacteria in vitro; settings: Erysipelothrix rhusiopathiae, NCTC8163, 18 h
Method: as §1

[10] = system: Corynebacterium pyogenes CY1; experiment: MIC against veterinary bacteria in vitro; settings: CY1, 18 h
Method: as §1

[11] = system: Staph. aureus B4 (pen. resistant); experiment: MIC against veterinary bacteria in vitro; settings: Staphylococcus aureus, 18 h
Method: as §1

Staph. aureus Oxford [12] = experiment: MIC against veterinary bacteria in vitro; settings: Staphylococcus aureus, 18 h
Method: as §1

[13] = system: Strep. suis (group D) SPS11; experiment: MIC against veterinary bacteria in vitro; settings: Streptococcus suis, 18 h
Method: as §1

Strep. agalactiae SPA1 = experiment: MIC against veterinary bacteria in vitro; settings: Streptococcus agalactiae, SPA1, 18 h
Method: as §1

[14] = system: M. suipneumoniae PW/C/210; experiment: MIC against mycoplasma in vitro; format: cell-based; settings: Mesomycoplasma hyopneumoniae, 144 h
Sarcina lutea 8340 = experiment: MIC against human bacteria in vitro; format: cell-based; settings: Micrococcus luteus; Sarcina lutea 8340; 5% chocolated horse blood agar, 18 hours; read-out: MIC
[15] = M. suipneumoniae JF 435, 6 days, 37° C., read-out: MIC
[16] = M. suipneumoniae HK(2), 6 days, 37° C., read-out: MIC
[17] = M. suipneumoniae J2206/183^b, 6 days, 37° C., read-out: MIC
[18] = M. suipneumoniae UCD 1, 6 days, 37° C., read-out: MIC
[19] = M. suipneumoniae ATCC 25095, 6 days, 37° C., read-out: MIC
[20] = M. suipneumoniae NCTC 10110, 6 days, 37° C., read-out: MIC
[21] = M. hyorhinis ATCC 23234, 6 days, 37° C., read-out: MIC
[22] = M. hyorhinis ATCC 25021, 6 days, 37° C., read-out: MIC
[23] = M. hyosynoviae ATCC 25591, 6 days, 37° C., read-out: MIC
[24] = M. pneumoniae ATCC 15492, 6 days, 37° C., read-out: MIC

SMILES	MIC (M. suipneumoniae JF 435; [15])	MIC (M. suipneumoniae LABER)	MIC [2, 19]	MIC (E. coli ESS)	MIC [5]	MIC [6]	MIC (Bacillus subtilis 6633)	MIC [7]	MIC (Staph. aureus Oxford [8])	MIC (Staph. aureus Russell)	MIC (Staph. aureus W2827)	MIC (Strep. agalactiae 2788-B)	MIC (S. dublin S7)	MIC (Bord. bronchiseptica B08)	MIC (Past. haemolytica PA5)	MIC [9]	MIC [10]	MIC [11]	MIC (Staph. aureus Oxford [12])	MIC [13]	further results
C/C(=C\c1ncc(-c2ccc(C(=O)O)cc2)o1)C[C@@H]1OC[C@H](C[C@@H]2O[C@H]2[C@@H](C)[C@H](C)O)[C@@H](O)[C@H]1O [Example 17, Sodium 4-[2-(1-normon-2-yl)-5-oxazolyl] benzoate A]	5 µg/mL	2.5 µg/mL	5 µg/mL	16 µg/mL	8 µg/mL	2 µg/mL	32 µg/mL	> 64 µg/mL	32 µg/mL	> 64 µg/mL	> 64 µg/mL	32 µg/mL	> 80 µg/mL	> 80 µg/mL	> 80 µg/mL	80 µg/mL	> 80 µg/mL	10 µg/mL	20 µg/mL	40 µg/mL	MIC (M. suipneumoniae HK(2); [16]): 10 µg/mL; MIC [1, 17]: 5 µg/mL; MIC (M. suipneumoniae UCD 1; [18]): 5 µg/mL; MIC [3, 20]: > 10 µg/mL; MIC (M. hyorhinis ATCC 23234; [21]): 5 µg/mL; MIC (M. hyorhinis ATCC 25021; [22]): 5 µg/mL; MIC [4, 23]: > 10 µg/mL; MIC (M. dispar NCTC 10125): 2.5 µg/mL; MIC (M. pneumoniae ATCC 15492; [24]): > 10 µg/mL; MIC (Strep. pneumoniae CN33): 64 µg/mL; MIC (Past. multocida PA1): 10 µg/mL; MIC (Past. multocida PA2): 1.25 µg/mL; MIC (Strep. agalactiae SPA1): 40 µg/mL
C/C(=C\c1ncc(-c2cccc([S+](C)[O-])c2)o1)C[C@@H]1OC[C@H](C[C@@H]2O[C@H]2[C@@H](C)[C@H](C)O)[C@@H](O)[C@H]1O (some centres unmarked) [Example 25, 5-m-Methylsulphinylphenyl-2-(1-normon-2-yl)oxazole A]	0.5 µg/mL (≈ 0.989 µM)	0.25 µg/mL (≈ 0.494 µM)	0.5 µg/mL (≈ 0.989 µM)	4 µg/mL (≈ 7.91 µM)	16 µg/mL (≈ 31.6 µM)	2 µg/mL (≈ 3.96 µM)	2 µg/mL (≈ 3.96 µM)	128 µg/mL (≈ 253 µM)	4 µg/mL (≈ 7.91 µM)	32 µg/mL (≈ 63.3 µM)	32 µg/mL (≈ 63.3 µM)	2 µg/mL (≈ 3.96 µM)	> 80 µg/mL	> 80 µg/mL	80 µg/mL (≈ 158 µM)	> 80 µg/mL	> 80 µg/mL	10 µg/mL (≈ 19.8 µM)	20 µg/mL (≈ 39.6 µM)	20 µg/mL (≈ 39.6 µM)	MIC (M. suipneumoniae HK(2)): 1 µg/mL (≈ 1.98 µM); MIC [1]: 1 µg/mL (≈ 1.98 µM); MIC [14]: 0.25 µg/mL (≈ 0.494 µM); MIC (M. suipneumoniae UCD 1): 1 µg/mL (≈ 1.98 µM); MIC [3]: 1 µg/mL (≈ 1.98 µM); MIC (M. hyorhinis ATCC 23234): 1 µg/mL (≈ 1.98 µM); MIC (M. hyorhinis ATCC 25021; [22]): 0.5 µg/mL (≈ 0.989 µM); MIC [4]: 1 µg/mL (≈ 1.98 µM); MIC (M. dispar NCTC 10125): 0.25 µg/mL (≈ 0.494 µM); MIC (M. pneumoniae ATCC 15492): 2.5 µg/mL (≈ 4.94 µM); MIC (Sarcina lutea 8340): 128 µg/mL (≈ 253 µM); MIC (Past. multocida PA1): 5 µg/mL (≈ 9.89 µM); MIC (Past. multocida PA2): 2.5 µg/mL (≈ 4.94 µM); MIC (Strep. agalactiae SPA1): 2.5 µg/mL (≈ 4.94 µM)
C/C(=C\c1cc(-c2ccccc2)no1)C[C@@H]1OC[C@H](C[C@@H]2O[C@H]2[C@@H](C)[C@H](C)O)[C@@H](O)[C@H]1O [Example 31, 5-(1-Normon-2-yl)-3-phenylisoxazole A]	10 µg/mL (≈ 22.5 µM)	–	5 µg/mL (≈ 11.3 µM)	64 µg/mL (≈ 144 µM)	64 µg/mL (≈ 144 µM)	16 µg/mL (≈ 36.1 µM)	64 µg/mL (≈ 144 µM)	> 128 µg/mL	64 µg/mL (≈ 144 µM)	128 µg/mL (≈ 289 µM)	128 µg/mL (≈ 289 µM)	> 128 µg/mL	> 80 µg/mL	> 80 µg/mL	> 80 µg/mL	> 80 µg/mL	> 80 µg/mL	10 µg/mL (≈ 22.5 µM)	20 µg/mL (≈ 45.1 µM)	> 80 µg/mL	MIC (M. suipneumoniae HK(2); [16]): 10 µg/mL (≈ 22.5 µM); MIC [1, 17]: 10 µg/mL (≈ 22.5 µM); MIC (M. suipneumoniae LABER; M. suipneumoniae LABER, 6 days, 37° C., read-out: MIC): 10 µg/mL (≈ 22.5 µM); MIC (M. suipneumoniae UCD 1; [18]): 10 µg/mL (≈ 22.5 µM); MIC [3, 20]: 10 µg/mL (≈ 22.5 µM); MIC (M. hyorhinis ATCC 23234; [21]): 5 µg/mL (≈ 11.3 µM); MIC (M. hyorhinis ATCC 25021; [22]): 5 µg/mL (≈ 11.3 µM); MIC [4, 23]: 10 µg/mL (≈ 22.5 µM); MIC (M. dispar NCTC 10125): 2.5 µg/mL (≈ 5.64 µM); MIC (M. pneumoniae ATCC 15492; [24]): > 10 µg/mL; MIC (Strep. pneumoniae CN33): > 128 µg/mL
C/C(=C\c1cc(-c2ccccc2)on1)C[C@@H]1OC[C@H](C[C@@H]2O[C@H]2[C@@H](C)[C@H](C)O)[C@@H](O)[C@H]1O [Example 34, 3-(1-Normon-2-yl)-5-phenylisoxazole A]	–	1 µg/mL (≈ 2.25 µM)	–	16 µg/mL (≈ 36.1 µM)	64 µg/mL (≈ 144 µM)	2 µg/mL (≈ 4.51 µM)	4 µg/mL (≈ 9.02 µM)	> 128 µg/mL	8 µg/mL (≈ 18 µM)	16 µg/mL (≈ 36.1 µM)	16 µg/mL (≈ 36.1 µM)	64 µg/mL (≈ 144 µM)	> 80 µg/mL	> 80 µg/mL	> 80 µg/mL	> 80 µg/mL	> 80 µg/mL	2.5 µg/mL (≈ 5.64 µM)	5 µg/mL (≈ 11.3 µM)	80 µg/mL (≈ 180 µM)	MIC (M. suipneumoniae JF 435): 2.5 µg/mL (≈ 5.64 µM); MIC (M. suipneumoniae HK(2)): 2.5 µg/mL (≈ 5.64 µM); MIC [1]: 2.5 µg/mL (≈ 5.64 µM); MIC (M. suipneumoniae UCD 1): 2.5 µg/mL (≈ 5.64 µM); MIC [2]: 1 µg/mL (≈ 2.25 µM); MIC [3]: 2.5 µg/mL (≈ 5.64 µM); MIC (M. hyorhinis ATCC 23234): 2.5 µg/mL (≈ 5.64 µM); MIC (M. hyorhinis ATCC 25021): 1 µg/mL (≈ 2.25 µM); MIC [4, 23]: 5 µg/mL (≈ 11.3 µM); MIC (M. dispar NCTC 10125; M. dispar NCTC 10125, 6 days, 37° C., read-out: MIC): 0.5 µg/mL (≈ 1.13 µM); MIC (M. pneumoniae ATCC 15492; [24]): 5 µg/mL (≈ 11.3 µM); MIC (Strep. pneumoniae CN33): 64 µg/mL (≈ 144 µM); MIC (Strep. agalactiae SPA1): 40 µg/mL (≈ 90.2 µM)
